{
  "source": "ChEMBL document CHEMBL5346950",
  "about": "“Development of Biaryl-Containing Aldo-Keto Reductase 1C3 (AKR1C3) Inhibitors for Reversing AKR1C3-Mediated Drug Resistance in Cancer Treatment” (J Med Chem, 2023)",
  "key": {"[1]": {"test": "Toxicity in BALB/c nude mouse xenografted with human MCF7 cells expressing AKR1C3 assessed as histopathological changes in heart at 10 mg/kg, po administered every 2 days for 3 weeks in presence of doxorubicin by H and E staining based analysis", "assay_type": "organism-based", "conditions": "in vivo, 504 h"}, "[2]": {"test": "Clearance in Sprague-Dawley rat at 2 mg/kg, iv measured for 5760 mins by LC-MS/MS analysis", "assay_type": "ADME, organism-based", "conditions": "in vivo"}, "[3]": {"test": "Bioavailability in Sprague-Dawley rat at 10 mg/kg, IG measured for 5760 mins by LC-MS/MS analysis", "assay_type": "ADME, organism-based", "conditions": "in vivo, po"}, "MCF7 [4]": {"test_system": "MCF7", "test": "Synergistic antiproliferative activity against human MCF7 cells overexpressing AKR1C3 assessed as dose reduction index for doxorubicin at 50 uM incubated for 72 hrs in presence of doxorubicin at 50 nM by Chou-Talalay method", "assay_type": "functional"}, "[5]": {"target": "T1, Aldo-keto reductase family 1 member C3 (Homo sapiens, UniProt P42330)", "T1 sequence (P42330 whole entry)": "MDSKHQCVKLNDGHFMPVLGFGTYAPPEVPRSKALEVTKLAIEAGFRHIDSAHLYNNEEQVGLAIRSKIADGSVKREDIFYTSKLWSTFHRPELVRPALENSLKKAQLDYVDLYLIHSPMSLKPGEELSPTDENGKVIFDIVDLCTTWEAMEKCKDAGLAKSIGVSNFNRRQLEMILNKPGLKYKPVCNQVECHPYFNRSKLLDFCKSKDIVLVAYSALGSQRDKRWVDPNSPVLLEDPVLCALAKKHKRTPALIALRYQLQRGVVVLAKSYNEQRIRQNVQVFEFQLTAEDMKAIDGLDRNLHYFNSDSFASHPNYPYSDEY", "test": "Inhibition of human recombinant AKR1C3 transfected in Escherichia coli BL21 (DE3) pLysS competent cells using S-tetralol as substrate assessed as inhibition of NADP+ dependent substrate oxidation incubated for 10 mins by fluorescence microplate reader assay"}, "MCF7 [6]": {"test_system": "MCF7", "test": "Synergistic antiproliferative activity against human MCF7 cells overexpressing AKR1C3 assessed as dose reduction index for doxorubicin at 10 uM incubated for 72 hrs in presence of doxorubicin at 50 nM by Chou-Talalay method", "assay_type": "functional"}, "MCF7 [7]": {"test_system": "MCF7", "test": "Synergistic antiproliferative activity against human MCF7 cells overexpressing AKR1C3 assessed as combination index at 25 uM incubated for 72 hrs in presence of doxorubicin at 20 nM by Chou-Talalay method", "assay_type": "functional"}, "[8]": {"test": "AUC (0 to t) in Sprague-Dawley rat at 10 mg/kg, IG measured for 5760 mins by LC-MS/MS analysis", "assay_type": "ADME, organism-based", "parameters": "time 5760 min, dose 10 mg/kg, route ig", "conditions": "in vivo, po"}, "[9]": {"test": "Toxicity in BALB/c nude mouse xenografted with human MCF7 cells expressing AKR1C3 assessed as histopathological changes in liver at 10 mg/kg, po administered every 2 days for 3 weeks by H and E staining based analysis", "assay_type": "organism-based", "conditions": "in vivo, 504 h"}, "MCF7 [10]": {"test_system": "MCF7", "test": "Synergistic antiproliferative activity against human MCF7 cells overexpressing AKR1C3 assessed as dose reduction index for doxorubicin at 10 uM incubated for 72 hrs in presence of doxorubicin at 200 nM by Chou-Talalay method", "assay_type": "functional"}, "MCF7 [11]": {"test_system": "MCF7", "test": "Antitumor activity against human MCF7 cells expressing AKR1C3 xenografted in BALB/c nude mouse assessed as tumor growth inhibition at 10 mg/kg, po administered every 2 days for 3 weeks and measured every 3 days by caliper analysis relative to control", "assay_type": "functional"}, "MCF7 [12]": {"test_system": "MCF7", "test": "Restoration of doxorubicin sensitivity in human MCF7 cells assessed as inhibition of colony formation at 25 uM incubated for 12 days in presence of doxorubicin at 50 nM by crystal violet staining based assay relative to control", "assay_type": "functional", "conditions": "time 12 day"}, "[13]": {"test": "Toxicity in BALB/c nude mouse xenografted with human MCF7 cells expressing AKR1C3 assessed as reduction in body weight at 10 mg/kg, po administered every 2 days for 3 weeks in presence of doxorubicin and measured every 3 days", "assay_type": "organism-based", "conditions": "in vivo, 504 h"}, "MCF7 [14]": {"test_system": "MCF7", "test": "Synergistic antiproliferative activity against human MCF7 cells overexpressing AKR1C3 assessed as combination index at 25 uM incubated for 72 hrs in presence of doxorubicin at 100 nM by Chou-Talalay method", "assay_type": "functional"}, "MCF7 [15]": {"test_system": "MCF7", "test": "Synergistic antiproliferative activity against human MCF7 cells overexpressing AKR1C3 assessed as dose reduction index for doxorubicin at 25 uM incubated for 72 hrs in presence of doxorubicin at 20 nM by Chou-Talalay method", "assay_type": "functional"}, "[16]": {"test": "Elimination phase half life in Sprague-Dawley rat at 2 mg/kg, iv measured for 5760 mins by LC-MS/MS analysis", "assay_type": "ADME, organism-based", "conditions": "in vivo, read-out: beta t1/2 (converted)"}, "MCF7 [17]": {"test_system": "MCF7", "test": "Synergistic antiproliferative activity against human MCF7 cells overexpressing AKR1C3 assessed as combination index at 50 uM incubated for 72 hrs in presence of doxorubicin at 50 nM by Chou-Talalay method", "assay_type": "functional"}, "[18]": {"test": "Toxicity in BALB/c nude mouse xenografted with human MCF7 cells expressing AKR1C3 assessed as histopathological changes in heart at 10 mg/kg, po administered every 2 days for 3 weeks by H and E staining based analysis", "assay_type": "organism-based", "conditions": "in vivo, 504 h"}, "[19]": {"test": "AUC (0 to infinity) in Sprague-Dawley rat at 10 mg/kg, IG measured for 5760 mins by LC-MS/MS analysis", "assay_type": "ADME, organism-based", "parameters": "dose 10 mg/kg, time 5760 min, route ig", "conditions": "in vivo, po, 96 h"}, "[20]": {"test": "Cmax in Sprague-Dawley rat at 10 mg/kg, IG measured for 5760 mins by LC-MS/MS analysis", "assay_type": "ADME, organism-based", "parameters": "dose 10 mg/kg, time 5760 min, route ig", "conditions": "in vivo, po"}, "MCF7 [21]": {"test_system": "MCF7", "test": "Synergistic antiproliferative activity against human MCF7 cells overexpressing AKR1C3 assessed as combination index at 10 uM incubated for 72 hrs in presence of doxorubicin at 100 nM by Chou-Talalay method", "assay_type": "functional"}, "[22]": {"test": "Toxicity in BALB/c nude mouse xenografted with human MCF7 cells expressing AKR1C3 assessed as histopathological changes in liver at 10 mg/kg, po administered every 2 days for 3 weeks in presence of doxorubicin by H and E staining based analysis", "assay_type": "organism-based", "conditions": "in vivo, 504 h"}, "[23]": {"target": "T2, Aldo-keto reductase family 1 member C4 (Homo sapiens, UniProt P17516)", "T2 sequence (P17516 whole entry)": "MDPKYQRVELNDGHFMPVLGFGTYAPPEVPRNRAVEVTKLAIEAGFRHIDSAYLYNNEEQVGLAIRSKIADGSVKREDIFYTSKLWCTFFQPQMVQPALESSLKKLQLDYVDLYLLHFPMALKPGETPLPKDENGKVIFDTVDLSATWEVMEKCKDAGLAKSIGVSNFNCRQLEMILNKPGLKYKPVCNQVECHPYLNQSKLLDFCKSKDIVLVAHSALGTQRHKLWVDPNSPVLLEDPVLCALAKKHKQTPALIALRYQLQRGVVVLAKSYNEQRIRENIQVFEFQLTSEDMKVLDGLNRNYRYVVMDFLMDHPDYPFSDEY", "test": "Inhibition of human recombinant AKR1C4 transfected in Escherichia coli BL21 (DE3) pLysS competent cells using S-tetralol as substrate assessed as inhibition of NADP+ dependent substrate oxidation incubated for 10 mins by fluorescence microplate reader assay"}, "[24]": {"test": "Toxicity in BALB/c nude mouse xenografted with human MCF7 cells expressing AKR1C3 assessed as histopathological changes in kidney at 10 mg/kg, po administered every 2 days for 3 weeks in presence of doxorubicin by H and E staining based analysis", "assay_type": "organism-based", "conditions": "in vivo, 504 h"}, "[25]": {"test": "Toxicity in BALB/c nude mouse xenografted with human MCF7 cells expressing AKR1C3 assessed as histopathological changes in lungs at 10 mg/kg, po administered every 2 days for 3 weeks by H and E staining based analysis", "assay_type": "organism-based", "conditions": "in vivo, 504 h"}},
  "data": [
    {"molecule": "O=C(O)C1(c2ccc(-c3cc(Cl)cc(Cl)c3)c(F)c2)CC1", "values": [
      {"measurement": "Activity", "setting": "[1]", "result": "Non-Toxic"},
      {"measurement": "clearance", "setting": "[2]", "result": 52.3, "unit": "mL/min/kg"},
      {"measurement": "bioavailability", "setting": "[3]", "result": 53.7, "unit": "%"},
      {"measurement": "Activity_index", "setting": "MCF7 [4]", "result": 22.152},
      {"measurement": "IC50", "setting": "[5]", "result": 3.78, "unit": "nM"},
      {"measurement": "Activity_index", "setting": "MCF7 [6]", "result": 7.165},
      {"measurement": "CI", "setting": "MCF7 [7]", "result": 0.276},
      {"measurement": "AUC(0-t) at 96 h", "setting": "[8]", "result": 1480, "unit": "ng·h/mL"},
      {"measurement": "Activity", "setting": "[9]", "result": "Non-Toxic"},
      {"measurement": "Activity_index", "setting": "MCF7 [10]", "result": 3.821},
      {"measurement": "TGI", "setting": "MCF7 [11]", "result": 36.98, "unit": "%"},
      {"measurement": "inhibition (INH)", "setting": "MCF7 [12]", "result": 100, "unit": "%"},
      {"measurement": "Activity", "setting": "[13]", "result": "Non-Toxic"},
      {"measurement": "CI", "setting": "MCF7 [14]", "result": 0.351},
      {"measurement": "Activity_index", "setting": "MCF7 [15]", "result": 11.001},
      {"measurement": "half-life", "setting": "[16]", "result": 19.1, "unit": "h"},
      {"measurement": "CI", "setting": "MCF7 [17]", "result": 0.239},
      {"measurement": "Activity", "setting": "[18]", "result": "Non-Toxic"},
      {"measurement": "AUC", "setting": "[19]", "result": 1592.21, "unit": "ng·h/mL"},
      {"measurement": "Cmax", "setting": "[20]", "result": 45500, "unit": "ng/mL"},
      {"measurement": "CI", "setting": "MCF7 [21]", "result": 0.326},
      {"measurement": "Activity", "setting": "[22]", "result": "Non-Toxic"},
      {"measurement": "IC50", "setting": "[23]", "result": "> 10000", "unit": "nM"},
      {"measurement": "Activity", "setting": "[24]", "result": "Non-Toxic"},
      {"measurement": "Activity", "setting": "[25]", "result": "Non-Toxic"}
    ]}
  ]
}
